Common to all, as to format: tissue-based
Assay [1] deals with 5-hydroxytryptamine receptor 4 (Rattus norvegicus, UniProt Q62758). Nature of the assay: Binding affinity against 5-hydroxytryptamine 4 receptor using [3H]GR-113808 as radioligand in rat striatum.
Assay [2] addresses T1, Serotonin 3 (5-HT3) receptor (Rattus norvegicus, UniProt P35563+Q9JJ16).
T1 sequence (P35563 whole entry): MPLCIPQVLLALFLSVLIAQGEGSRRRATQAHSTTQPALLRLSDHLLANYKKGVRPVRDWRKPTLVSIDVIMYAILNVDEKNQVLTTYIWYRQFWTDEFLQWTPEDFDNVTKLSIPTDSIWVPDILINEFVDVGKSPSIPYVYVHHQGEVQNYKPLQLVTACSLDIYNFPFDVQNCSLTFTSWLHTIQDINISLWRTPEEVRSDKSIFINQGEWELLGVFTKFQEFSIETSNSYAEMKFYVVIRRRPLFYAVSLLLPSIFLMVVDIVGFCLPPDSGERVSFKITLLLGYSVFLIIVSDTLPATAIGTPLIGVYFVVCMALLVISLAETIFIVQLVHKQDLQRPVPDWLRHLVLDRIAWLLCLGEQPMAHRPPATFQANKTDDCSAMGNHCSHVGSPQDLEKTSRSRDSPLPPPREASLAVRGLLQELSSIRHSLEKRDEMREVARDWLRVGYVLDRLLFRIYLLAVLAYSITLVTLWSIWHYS
T1 sequence (Q9JJ16 whole entry): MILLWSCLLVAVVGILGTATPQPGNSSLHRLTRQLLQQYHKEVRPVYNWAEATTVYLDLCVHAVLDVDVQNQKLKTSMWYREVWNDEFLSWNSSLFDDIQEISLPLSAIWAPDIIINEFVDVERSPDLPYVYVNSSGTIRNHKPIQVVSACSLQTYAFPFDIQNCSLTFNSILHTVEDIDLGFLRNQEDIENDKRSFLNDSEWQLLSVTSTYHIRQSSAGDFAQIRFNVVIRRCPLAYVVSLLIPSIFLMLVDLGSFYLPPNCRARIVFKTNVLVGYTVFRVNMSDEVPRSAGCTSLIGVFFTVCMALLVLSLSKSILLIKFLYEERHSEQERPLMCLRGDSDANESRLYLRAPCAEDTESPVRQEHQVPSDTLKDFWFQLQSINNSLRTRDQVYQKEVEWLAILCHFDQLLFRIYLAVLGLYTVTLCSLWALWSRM
Nature of the assay: Binding affinity against 5-hydroxytryptamine 3 receptor using [3H]BRL-43694 as radioligand in rat posterior cortex.

The target of another assay is D(2) dopamine receptor (Rattus norvegicus, UniProt P61169). Nature of the assay: Binding affinity against Dopamine receptor D2 using [3H]spiperone as radioligand in rat striatum.
Sequence of D(2) dopamine receptor (P61169 whole entry): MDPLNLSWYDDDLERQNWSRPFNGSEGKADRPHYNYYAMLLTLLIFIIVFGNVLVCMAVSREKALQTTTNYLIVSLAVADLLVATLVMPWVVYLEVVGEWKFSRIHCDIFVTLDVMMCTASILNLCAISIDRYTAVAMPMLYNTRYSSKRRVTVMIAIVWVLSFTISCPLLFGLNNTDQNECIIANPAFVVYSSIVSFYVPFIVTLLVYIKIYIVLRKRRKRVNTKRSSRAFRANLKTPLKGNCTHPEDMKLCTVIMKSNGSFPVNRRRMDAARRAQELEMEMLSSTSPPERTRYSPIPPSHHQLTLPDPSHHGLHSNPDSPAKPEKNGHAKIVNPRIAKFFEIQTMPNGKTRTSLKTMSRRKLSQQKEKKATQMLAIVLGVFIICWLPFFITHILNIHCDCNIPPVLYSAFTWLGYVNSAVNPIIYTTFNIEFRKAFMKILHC

Here are results for seven compounds from ChEMBL document CHEMBL1149999, “Synthesis and pharmacological activity of a macrocyclic benzamide” (Bioorg Med Chem Lett, 1995).

Sequence of 5-hydroxytryptamine receptor 4 (Q62758 whole entry): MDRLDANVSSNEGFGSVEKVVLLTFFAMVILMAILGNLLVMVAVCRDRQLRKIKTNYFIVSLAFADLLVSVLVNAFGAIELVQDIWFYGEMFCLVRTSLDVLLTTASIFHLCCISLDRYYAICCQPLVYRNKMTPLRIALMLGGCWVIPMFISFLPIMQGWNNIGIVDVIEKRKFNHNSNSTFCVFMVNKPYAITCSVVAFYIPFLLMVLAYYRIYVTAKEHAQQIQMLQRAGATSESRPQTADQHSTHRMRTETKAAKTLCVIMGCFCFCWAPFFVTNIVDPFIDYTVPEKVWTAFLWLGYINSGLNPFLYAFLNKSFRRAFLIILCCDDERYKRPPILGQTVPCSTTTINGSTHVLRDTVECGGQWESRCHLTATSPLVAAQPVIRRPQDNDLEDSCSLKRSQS

A word on the Ki: it is the dissociation constant of the complex between target and ligand, obtained from inhibition or displacement. Lower therefore signals a stronger hold on the target. On to `Nc1cc2c(cc1Cl)C(=O)NC1CCN(CCOCCO2)CC1`, for which the Ki was 29.7 nM in assay [1], 53.2 nM in assay [2] and > 1000 nM on D(2) dopamine receptor.
In the case of `COc1cc(N)c(Cl)cc1C(=O)NC1CC2CCC(C1)N2Cc1ccccc1` (centres undefined), the Ki was 233 nM in assay [1], > 1000 nM in assay [2] and 0.28 nM at D(2) dopamine receptor.
For the compound `COc1cc(N)c(Cl)cc1C(=O)NC1CCN(C)CC1`, the Ki in assay [1] is 832 nM; in assay [2] it was 267 nM; on D(2) dopamine receptor it was > 1000 nM.
On to `COc1cc(N)c(Cl)cc1C(=O)N[C@@H]1CN2CCC1CC2`, for which the Ki in assay [1] was 383 nM; at D(2) dopamine receptor, > 1000 nM.
For `COc1cc(N)c(Cl)cc1C(=O)NC1CC2CCC(C1)N2C` (stereo in doubt), the Ki is 48 nM in assay [1], 0.8 nM in assay [2] and > 1000 nM on D(2) dopamine receptor.
Turning to `COc1cc(N)c(Cl)cc1C(=O)NC1CC2CCC(C1)N2C` (stereo in doubt; 5), the inhibitory constant (Ki) is > 1000 nM in assay [1], 41.8 nM in assay [2] and > 1000 nM on D(2) dopamine receptor.
In the case of `COc1cc(N)c(Cl)cc1C(=O)NC1CCN(Cc2ccccc2)CC1` [CLEBOPRIDE], the values for the Ki in assay [1] and in assay [2] were 104 nM and > 1000 nM, respectively.
